Results: ChEMBL document CHEMBL1141680, “Identification of ring-fused pyrazolo pyridin-2-ones as novel poly(ADP-ribose)polymerase-1 inhibitors” (Bioorg Med Chem Lett, 2008)

How the values were obtained:
[1] = target: Poly [ADP-ribose] polymerase 1 (Homo sapiens, UniProt P09874)
Description: Inhibition of PARP1 in human HeLa cells by fluid scintillation counting using [adenylated-32P]NAD as substrate

PARP1 = experiment: Therapeutic index, ratio of LD40 for human HCT116 cells to drug concentration that reduced half the amount of streptozotocin required to inhibit PARP1-mediated 90% human HCT116 cell growth; format: cell-based, HCT-116; conditions: read-out: TI
HCT-116 = experiment: Cytotoxicity against human HCT116 cells; format: cell-based

Sequence of Poly [ADP-ribose] polymerase 1 (P09874 whole entry): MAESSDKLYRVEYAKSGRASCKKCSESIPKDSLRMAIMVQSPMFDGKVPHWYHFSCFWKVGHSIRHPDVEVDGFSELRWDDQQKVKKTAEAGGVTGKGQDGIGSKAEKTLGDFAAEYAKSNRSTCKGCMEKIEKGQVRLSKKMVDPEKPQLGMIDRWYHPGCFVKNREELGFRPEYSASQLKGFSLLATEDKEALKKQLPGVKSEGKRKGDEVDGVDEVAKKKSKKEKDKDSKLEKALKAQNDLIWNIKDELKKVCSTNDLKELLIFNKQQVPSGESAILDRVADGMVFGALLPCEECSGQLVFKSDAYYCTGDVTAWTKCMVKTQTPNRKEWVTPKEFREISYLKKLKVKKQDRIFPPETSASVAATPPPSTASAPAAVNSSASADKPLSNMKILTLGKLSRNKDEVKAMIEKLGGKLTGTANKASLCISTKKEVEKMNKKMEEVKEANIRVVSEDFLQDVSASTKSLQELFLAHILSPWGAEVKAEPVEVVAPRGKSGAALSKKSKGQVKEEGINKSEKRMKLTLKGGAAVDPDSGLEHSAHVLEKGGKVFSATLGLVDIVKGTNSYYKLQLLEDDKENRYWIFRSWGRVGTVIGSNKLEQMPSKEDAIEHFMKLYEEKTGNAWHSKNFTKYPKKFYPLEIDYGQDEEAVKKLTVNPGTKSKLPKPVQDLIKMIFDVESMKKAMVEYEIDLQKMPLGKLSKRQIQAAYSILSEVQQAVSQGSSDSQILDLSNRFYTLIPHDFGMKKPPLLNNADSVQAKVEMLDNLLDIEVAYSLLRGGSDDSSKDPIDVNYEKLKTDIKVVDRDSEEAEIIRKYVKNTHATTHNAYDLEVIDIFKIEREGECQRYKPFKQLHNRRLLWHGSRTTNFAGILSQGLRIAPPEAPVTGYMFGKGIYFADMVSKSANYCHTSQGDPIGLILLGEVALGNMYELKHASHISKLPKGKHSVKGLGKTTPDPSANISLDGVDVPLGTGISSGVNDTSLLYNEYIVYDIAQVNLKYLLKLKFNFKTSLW

Row | SMILES | IC50 [1] [nM] | selectivity ratio (PARP1) | LD40 (HCT-116) [µM]
1 | Cc1nn(C)c2[nH]c(=O)c3c(c12)CSC3 | 92.7 | > 1.8 | > 50
2 | Cn1nc(-c2ccccc2)c2c3c(c(=O)[nH]c21)CSC3 | 110 | 1.4 | 21.2
3 | Cn1nc(-c2ccccc2)c2c1NC(=O)C1CCCCC21 (configuration not stated) | 7.3 | 19.7 | 7.5
4 | Cn1nc(-c2cccs2)c2c3c(c(=O)[nH]c21)CCC3 | 149 | 3.6 | 11.2
5 | COc1ccc(-c2nc3c(C(N)=O)cccc3[nH]2)cc1 | 60 |  | 
6 | Cc1nn(C)c2[nH]c(=O)c3c(c12)CCC3 | 29.8 | 1.4 | 27.2
7 | Cc1cccc2c1CCNC2=O | 160 |  | 
8 | Cn1nc(-c2ccccc2)c2c3c(c(=O)[nH]c21)CCC3 | 106 | 1.6 | 42.5

Further lines, with some results ahead:

Row | IC50 [1] [nM] | SMILES | selectivity ratio (PARP1) | LD40 (HCT-116) [µM]
9 | 428 | Cn1nc(-c2cccs2)c2c3c(c(=O)[nH]c21)CSC3 |  | 
10 | 6.9 | Cn1nc(-c2cccs2)c2c3c(c(=O)[nH]c21)CCCC3 | > 32.9 | > 12.5
11 | 9720 | Cc1nn(-c2ccccc2)c2[nH]c(=O)c3c(c12)CCCC3 |  | 
12 | 1840 | Cc1nn(C(C)(C)C)c2[nH]c(=O)c3c(c12)CSC3 |  | 
13 | 2.2 | Cc1nn(C)c2[nH]c(=O)c3c(c12)CCCC3 | > 6.6 | > 12.5
14 | > 10000 | Cc1nn(-c2ccccc2)c2[nH]c(=O)c3c(c12)CSC3 |  | 
15 | 519 | Cc1nn(C(C)(C)C)c2[nH]c(=O)c3c(c12)CCC3 |  | 
16 | > 10000 | O=c1[nH]c2c(c(-c3ccccc3)nn2-c2ccccc2)c2c1CCC2 |  | 
17 | > 10000 | Cc1nn(C)c2[nH]c3c(c(=O)c12)CCCC3 |  | 
18 | 7000 | Cc1nn(C)c2[nH]c3c(c(=O)c12)CCC3 |  | 
19 | > 10000 | Cc1nn(-c2ccccc2)c2[nH]c(=O)c3c(c12)CCC3 |  | 
20 | > 10000 | Cc1nn(C)c2nc3c(c(O)c12)CSC3 |  | 
21 | > 10000 | O=c1[nH]c2c(c(-c3ccccc3)nn2-c2ccccc2)c2c1CCCC2 |  | 
